Source: patent publication US20250223303A1, “TRICYCLIC BORONIC ACID DERIVATIVE, AND PREPARATION METHOD THEREFOR AND APPLICATION THEREOF” (priority 2021, published 2025)

What was measured:
[1] = test system: Klebsiella pneumoniae ATCC BAA-1705; assay: MIC test of compounds in combination with antibiotics, Klebsiella pneumoniae ATCC BAA-1705; settings: for MIC of biapenem in combination with compound, Klebsiella pneumoniae ATCC BAA-1705 KPC-2: Biapenem + compound (8 μg/mL); for MIC of meropenem in combination with compound, Klebsiella pneumoniae ATCC BAA-1705 KPC-2: Meropenem + compound (8 μg/mL)
Procedure: (§1) Strain preparation: the strains to be tested were streaked from glycerol tube at −80° C. onto Mueller Hinton II Agar plates. The plates were then placed in a 37° C. incubator and cultured for 18-24 hours.
(§2) Media preparation: CAMHB (Mueller Hinton II Broth): 22 g of powder was dissolved in 1 L of purified water and sterilized at 121° C. for 10 min for use. Saline: 8.5 g NaCl was dissolved in 1 L of pure water and sterilized at 121° C. for 30 min for use.
(§3) Preparation of compound and antibiotic stock solutions: the compound and antibiotic were dissolved in DMSO or water to 12.8 mg/mL.
(§4) 2-Fold gradient dilution of antibiotics: 300 μL of CAMHVIB medium was added to columns 2-12 of a 96-deep well plate. In column 1, 24 μL of antibiotic stock solution and 576 µL of CAMHB medium were added and mixed well, with a concentration of 512 μg/mL. 300 µL of antibiotic solution was transferred from the column 1 to the second column and mixed well. The process was repeated until column 11, and the column 12 was a blank control.
(§5) Dilution of combined compounds: the compound was diluted 400-fold to 32 μg/ml with CAMHB medium.
(§6) Working solution aliquoting: 25 μL of antibiotics was aliquoted into the 96-U bottom plate with a pipette, and 25 μL of combined compound was added to each well. If antibiotics were used alone, 25 μL of CAMHB medium was added.
(§7) Inoculum solution preparation: 5-6 single colonies were selected from the plate and suspended in normal saline. The bacterial suspension was adjusted to 0.2 (i.e., 0.5 McFarland turbidity, with a bacterial concentration was about 1 to 2×10^8 CFU/mL) with a turbidity meter. The bacterial suspension was diluted 100-fold with CAMHB medium for later use.
(§8) Inoculation: 50 μL of inoculum solution was transferred to the above 50 μL compound plate with a pipette.
(§9) Culture: The 96-U bottom plate was placed in an incubator at 37° C. for 18 to 20 h.
(§10) After the incubation, bacterial growth was visually observed, and the test plate was photographed and recorded.

[2] = test system: Klebsiella pneumoniae ATCC BAA-2470; assay: MIC test of compounds in combination with antibiotics, Klebsiella pneumoniae ATCC BAA-2470; settings: for MIC of biapenem in combination with compound, Klebsiella pneumoniae ATCC BAA-2470 NDM-1: Biapenem + compound (8 μg/mL); for MIC of meropenem in combination with compound, Klebsiella pneumoniae ATCC BAA-2470 NDM-1: Meropenem + compound (8 μg/mL)
[3] = test system: Acinetobacter baumannii ARLG-1791 OXA-23; assay: MIC test of compounds in combination with antibiotics, Acinetobacter baumannii ARLG-1791; settings: for MIC of biapenem in combination with compound, Acinetobacter baumannii ARLG-1791 OXA-23: Biapenem + compound (8 μg/mL); for MIC of meropenem in combination with compound, Acinetobacter baumannii ARLG-1791 OXA-23: Meropenem + compound (8 μg/mL)
Procedure: as §4, §5, §6, §7, §8, §9

[4] = test system: Klebsiella pneumoniae ARLG 1196; assay: MIC test of compounds in combination with antibiotics, Klebsiella pneumoniae ARLG 1196; settings: for MIC of biapenem in combination with compound, Klebsiella pneumoniae ARLG-1196 CTM-1 group, SHV, NDM, TEM: Biapenem + compound (8 μg/mL); for MIC of meropenem in combination with compound, Klebsiella pneumoniae ARLG-1196 CTM-1 group, SHV, NDM, TEM: Meropenem + compound (8 μg/mL)
[5] = test system: Acinetobacter baumannii ARLG-1852 OXA-23; assay: MIC test of compounds in combination with antibiotics, Acinetobacter baumannii ARLG-1852; settings: for MIC of biapenem in combination with compound, Acinetobacter baumannii ARLG-1852 OXA-23: Biapenem + compound (8 μg/mL); for MIC of meropenem in combination with compound, Acinetobacter baumannii ARLG-1852 OXA-23: Meropenem + compound (8 μg/mL)
Procedure: as §4, §5, §6, §7, §8, §9

[6] = test system: Acinetobacter baumannii ARLG-1809 OXA-23; assay: MIC test of compounds in combination with antibiotics, Acinetobacter baumannii ARLG-1809; settings: for MIC of biapenem in combination with compound, Acinetobacter baumannii ARLG-1809 OXA-23: Biapenem + compound (8 μg/mL); for MIC of meropenem in combination with compound, Acinetobacter baumannii ARLG-1809 OXA-23: Meropenem + compound (8 μg/mL)
Procedure: as §4, §5, §6, §7, §8, §9

[7] = test system: Escherichia coli ARLG 2829; assay: MIC test of compounds in combination with antibiotics, Escherichia coli ARLG 2829; settings: for MIC of biapenem in combination with compound, Escherichia coli ARLG-2829 NDM-5, OXA-1: Biapenem + compound (8 μg/mL); for MIC of meropenem in combination with compound, Escherichia coli ARLG-2829 NDM-5, OXA-1: Meropenem + compound (8 μg/mL)
Procedure: as §1, §2, §3, §4, §5, §6, §7, §8, §9, §10

[8] = test system: Acinetobacter baumannii ARLG-1853 OXA-23; assay: MIC test of compounds in combination with antibiotics, Acinetobacter baumannii ARLG-1853; settings: for MIC of biapenem in combination with compound, Acinetobacter baumannii ARLG-1853 OXA-23: Biapenem + compound (8 μg/mL); for MIC of meropenem in combination with compound, Acinetobacter baumannii ARLG-1853 OXA-23: Meropenem + compound (8 μg/mL)
[9] = test system: Acinetobacter baumannii WX-AB013; assay: MIC test of compounds in combination with antibiotics, Acinetobacter baumannii WX-AB013; settings: for MIC of biapenem in combination with compound, Acinetobacter baumannii WX-AB013: Biapenem + compound (8 μg/mL); for MIC of meropenem in combination with compound, Acinetobacter baumannii WX-AB013: Meropenem + compound (8 μg/mL)
[10] = test system: Acinetobacter baumannii WX-AB005; assay: MIC test of compounds in combination with antibiotics, Acinetobacter baumannii WX-AB005; settings: for MIC of biapenem in combination with compound, Acinetobacter baumannii WX-AB005: Biapenem + compound (8 μg/mL); for MIC of meropenem in combination with compound, Acinetobacter baumannii WX-AB005: Meropenem + compound (8 μg/mL)

C[C@H](Sc1ccc2c(c1C(=O)O)OB(O)[C@@H]1C[C@H]21)C1CN(C)C1 [Compound 20-a]
2 µg/mL: MIC of meropenem in combination with compound, Acinetobacter baumannii ARLG-1791 OXA-23 [3] | MIC of meropenem in combination with compound, Klebsiella pneumoniae ARLG-1196 CTM-1 group, SHV, NDM, TEM [4] | MIC of meropenem in combination with compound, Acinetobacter baumannii ARLG-1852 OXA-23 [5] | MIC of meropenem in combination with compound, Acinetobacter baumannii ARLG-1809 OXA-23 [6] | MIC of meropenem in combination with compound, Acinetobacter baumannii ARLG-1853 OXA-23 [8] | MIC of meropenem in combination with compound, Acinetobacter baumannii WX-AB013 [9] | MIC of biapenem in combination with compound, Acinetobacter baumannii WX-AB005 [10]
0.25 µg/mL: MIC of biapenem in combination with compound, Acinetobacter baumannii ARLG-1791 OXA-23 [3] | MIC of biapenem in combination with compound, Acinetobacter baumannii ARLG-1852 OXA-23 [5] | MIC of biapenem in combination with compound, Escherichia coli ARLG-2829 NDM-5, OXA-1 [7] | MIC of biapenem in combination with compound, Acinetobacter baumannii ARLG-1853 OXA-23 [8]
0.5 µg/mL: MIC of biapenem in combination with compound, Klebsiella pneumoniae ATCC BAA-1705 KPC-2 [1] | MIC of biapenem in combination with compound, Acinetobacter baumannii ARLG-1809 OXA-23 [6] | MIC of biapenem in combination with compound, Acinetobacter baumannii WX-AB013 [9]
≤0.125 µg/mL: MIC of meropenem in combination with compound, Klebsiella pneumoniae ATCC BAA-1705 KPC-2 [1] | MIC of biapenem in combination with compound, Klebsiella pneumoniae ATCC BAA-2470 NDM-1 [2] | MIC of biapenem in combination with compound, Klebsiella pneumoniae ARLG-1196 CTM-1 group, SHV, NDM, TEM [4]
16 µg/mL: MIC of meropenem in combination with compound, Escherichia coli ARLG-2829 NDM-5, OXA-1 [7]
4 µg/mL: MIC of meropenem in combination with compound, Klebsiella pneumoniae ATCC BAA-2470 NDM-1 [2] | MIC of meropenem in combination with compound, Acinetobacter baumannii WX-AB005 [10]

NC1COCC1Sc1ccc2c(c1C(=O)O)OB(O)C1CC21 (single isomer, unassigned) [Compound 11_P2]
4 µg/mL: MIC of meropenem in combination with compound, Acinetobacter baumannii WX-AB005 [10]
1 µg/mL: MIC of meropenem in combination with compound, Acinetobacter baumannii ARLG-1852 OXA-23 [5] | MIC of meropenem in combination with compound, Acinetobacter baumannii ARLG-1853 OXA-23 [8] | MIC of biapenem in combination with compound, Acinetobacter baumannii WX-AB005 [10]
0.5 µg/mL: MIC of meropenem in combination with compound, Klebsiella pneumoniae ATCC BAA-2470 NDM-1 [2] | MIC of biapenem in combination with compound, Acinetobacter baumannii WX-AB013 [9]
0.25 µg/mL: MIC of biapenem in combination with compound, Klebsiella pneumoniae ATCC BAA-1705 KPC-2 [1] | MIC of biapenem in combination with compound, Klebsiella pneumoniae ATCC BAA-2470 NDM-1 [2] | MIC of biapenem in combination with compound, Acinetobacter baumannii ARLG-1791 OXA-23 [3] | MIC of biapenem in combination with compound, Klebsiella pneumoniae ARLG-1196 CTM-1 group, SHV, NDM, TEM [4] | MIC of biapenem in combination with compound, Acinetobacter baumannii ARLG-1809 OXA-23 [6]
≤0.125 µg/mL: MIC of meropenem in combination with compound, Klebsiella pneumoniae ATCC BAA-1705 KPC-2 [1] | MIC of biapenem in combination with compound, Acinetobacter baumannii ARLG-1852 OXA-23 [5] | MIC of biapenem in combination with compound, Escherichia coli ARLG-2829 NDM-5, OXA-1 [7] | MIC of meropenem in combination with compound, Escherichia coli ARLG-2829 NDM-5, OXA-1 [7] | MIC of biapenem in combination with compound, Acinetobacter baumannii ARLG-1853 OXA-23 [8]
2 µg/mL: MIC of meropenem in combination with compound, Acinetobacter baumannii ARLG-1791 OXA-23 [3] | MIC of meropenem in combination with compound, Klebsiella pneumoniae ARLG-1196 CTM-1 group, SHV, NDM, TEM [4] | MIC of meropenem in combination with compound, Acinetobacter baumannii ARLG-1809 OXA-23 [6] | MIC of meropenem in combination with compound, Acinetobacter baumannii WX-AB013 [9]

CC(Sc1ccc2c(c1C(=O)O)OB(O)C1CC21)C1CC1 (single isomer, unassigned) [Compound 16-d]
0.25 µg/mL: MIC of biapenem in combination with compound, Klebsiella pneumoniae ATCC BAA-2470 NDM-1 [2] | MIC of meropenem in combination with compound, Klebsiella pneumoniae ARLG-1196 CTM-1 group, SHV, NDM, TEM [4] | MIC of biapenem in combination with compound, Acinetobacter baumannii ARLG-1852 OXA-23 [5] | MIC of biapenem in combination with compound, Acinetobacter baumannii ARLG-1853 OXA-23 [8]
2 µg/mL: MIC of meropenem in combination with compound, Klebsiella pneumoniae ATCC BAA-1705 KPC-2 [1] | MIC of meropenem in combination with compound, Acinetobacter baumannii ARLG-1852 OXA-23 [5] | MIC of meropenem in combination with compound, Acinetobacter baumannii ARLG-1853 OXA-23 [8] | MIC of biapenem in combination with compound, Acinetobacter baumannii WX-AB005 [10]
0.5 µg/mL: MIC of biapenem in combination with compound, Klebsiella pneumoniae ATCC BAA-1705 KPC-2 [1] | MIC of meropenem in combination with compound, Klebsiella pneumoniae ATCC BAA-2470 NDM-1 [2] | MIC of biapenem in combination with compound, Acinetobacter baumannii ARLG-1791 OXA-23 [3] | MIC of biapenem in combination with compound, Acinetobacter baumannii ARLG-1809 OXA-23 [6] | MIC of meropenem in combination with compound, Escherichia coli ARLG-2829 NDM-5, OXA-1 [7] | MIC of biapenem in combination with compound, Acinetobacter baumannii WX-AB013 [9]
8 µg/mL: MIC of meropenem in combination with compound, Acinetobacter baumannii ARLG-1791 OXA-23 [3] | MIC of meropenem in combination with compound, Acinetobacter baumannii WX-AB005 [10]
4 µg/mL: MIC of meropenem in combination with compound, Acinetobacter baumannii ARLG-1809 OXA-23 [6] | MIC of meropenem in combination with compound, Acinetobacter baumannii WX-AB013 [9]
≤0.125 µg/mL: MIC of biapenem in combination with compound, Klebsiella pneumoniae ARLG-1196 CTM-1 group, SHV, NDM, TEM [4] | MIC of biapenem in combination with compound, Escherichia coli ARLG-2829 NDM-5, OXA-1 [7]
